In patent US9695129B2, “Parasiticidal compositions comprising benzimidazole derivatives, methods and uses thereof” (MERIAL INC., priority 2012, dated 2017):
Read-outs that look alike come from different tables or passages of the source.

How the values were obtained:
Set-up in all cases: species or system Fasciola hepatica
adult F. hepatica [1] = experiment: In vitro test on adult F. hepatica (viability scale, effective concentration); conditions: Fasciola hepatica, read-out: Effective in vitro concentration
Procedure: Representative compounds of formula (I), formula (II), and formula (III) were tested in vitro against F. hepatica as follows. Adult F. hepatica (fluke) were collected from infected bovine livers obtained from a local abattoir (Basel, Switzerland). The worms were quickly washed with 0.9% (w/v) NaCl and placed in 6 or 12-well plates (Costar). Culture medium in each well contained RPMI 1640 (Gibco) at 37° C., which was supplemented with antibiotics (50 μg/ml streptomycin and 50 IU/ml penicillin; Gibco) and 80 μg/ml of a haemin solution. The haemin solution was prepared as follows: 5 mg haemin was dissolved in 1 ml of 0.1M aqueous solution of NaOH, and 3.95 ml of PBS (pH=7.4) and 0.05 ml of 1M HCl were added to adjust the pH to 7.1-7.4 (Keiser and Morson, 2008). Cultures were kept at 37° C. in an atmosphere of 5% CO2. To monitor the temporal effects of test compounds in vitro, 3 flukes were incubated for 72 h in the presence of 50 or 100 μg/ml of each test compound. At 24, 48, and 72 h, worms were examined using a dissecting microscope. For the adult worms, a viability scale ranging from 4 (normal movements) to 1 (death; no movement observed for two min using a microscope) was used.
(§1) Table 1 lists representative compounds of formula (I) of the present invention and their effective in vitro concentrations against F. hepatica. All compounds were tested in vitro on the adult stage of F. hepatica as described above. Each data point refers to at least two independent experiments. For Table 1, R2 is H, R4 is Cl and R5 is H.
as §1, with “2” for “1”, “(II)” for “(I)”, “2 compounds, the 2-position of the benzimidazole ring” for “1, R2”, “methylthio, R6” for “H, R4”, “H” for “Cl”, “R9” for “R5”
as §1, with “3” for “1”, “(III)” for “(I)”, “3, the 2-position of the benzimidazole ring” for “1, R2”, “trifluoromethylthio, R10” for “H, R4”, “H” for “Cl”, “R13” for “R5”

[2] = tested on: F. hepatica resistant to triclabendazole (Oberon isolate of Australia); experiment: In vitro test against triclabendazole-resistant F. hepatica (Oberon isolate), movement score; conditions: for Fluke activity score: scale 3 (very active) to 0 (death)
adult F. hepatica [3] = experiment: In vivo test in female Wistar rats harboring adult F. hepatica; conditions: single oral dose 100 mg/kg, one week after dosing; for Number of living worms Ø = average: control 6.3; for Worm burden reduction %: vs untreated control
Procedure: Additionally, five compounds were tested in vivo in female Wistar rats against an untreated control. Rats were kept in groups of five in type-4 Makrolon cages under environmentally controlled conditions (temperature, 22° C.; humidity, 70%; light/dark cycle, 12/12 h) with free access to water and rodent food. F. hepatica metacercariae (Pacific Northwest wild strain) were purchased from Baldwin Aquatics (Monmouth, Oreg.). After one week of adaptation, each rat was infected by oral gavage with approximately 25 metacercariae.
Three rats harboring adult F. hepatica (>8 weeks postinfection) were used to test each of five compounds. The rats were given a single oral dose of 100 mg/kg with each of test compounds 273, 274, 282, 290 and 303. Untreated rats (n=3) served as controls. Dosing formulations consisted of 300 ul Tween 80:ethanol (1:1) and 2.7 ml water. One week after dosing the animals were euthanized and live worms recovered from excised bile ducts.

[4] = Table 1, formula (I), adult flukes incubated up to 72 h, at least two independent experiments

In the case of `FC(F)(F)c1nc2cc(Cl)c(-c3ccc(Cl)cc3)cc2[nH]1` [Compound 130, 6-chloro-5-(4-chlorophenyl)-2-trifluoromethylbenzimidazole], the minimal effective concentration (adult F. hepatica [1]; 72 h) is reported as 2.5 µg/mL, the Fluke activity score ([2]; 20 μg/ml, 0 h) is reported as 3 and the Fluke activity score ([2]; 20 μg/ml, 24 h) is reported as 0.25. For the same compound, the Fluke activity score ([2]; 20 μg/ml, 48 h) was 0 and the Fluke activity score ([2]; 20 μg/ml, 72 h) was 0.

With `FC(F)(F)C(F)(F)C(F)(F)c1nc2cc(Cl)c(Oc3cccc(Cl)c3Cl)cc2[nH]1` [Compound 140, 6-chloro-5-(2,3-dichlorophenoxy)-2-heptafluoropropylbenzimidazole] the minimal effective concentration (adult F. hepatica [1]; 72 h) was 5 µg/mL, the Fluke activity score ([2]; 20 μg/ml, 0 h) was 3 and the Fluke activity score ([2]; 20 μg/ml, 24 h) was 0.5. The Fluke activity score ([2]; 20 μg/ml, 48 h) was 0 and the Fluke activity score ([2]; 20 μg/ml, 72 h) was 0.

`FC(F)(F)C(F)(F)C(F)(F)c1nc2cc(Cl)c(Oc3ccc(Cl)cc3Cl)cc2[nH]1` [Compound 273, 5-chloro-6-(2,4-dichlorophenoxy)-2-(heptafluoropropyl)-1H-1,3-benzodiazole] showed a minimal effective concentration (adult F. hepatica [1]; 72 h) of 5 µg/mL, a Fluke activity score ([2]; 10 μg/ml, 0 h) of 3 and a Fluke activity score ([2]; 10 μg/ml, 24 h) of 0. The Fluke activity score ([2]; 10 μg/ml, 48 h) was 0, the Fluke activity score ([2]; 10 μg/ml, 72 h) was 0 and the Fluke activity score ([2]; 20 μg/ml, 0 h) was 3. It also gave a Fluke activity score ([2]; 20 μg/ml, 24 h) of 0, a Fluke activity score ([2]; 20 μg/ml, 48 h) of 0 and a Fluke activity score ([2]; 20 μg/ml, 72 h) of 0. The “Efficacy against triclabendazole-resistant flukes, in words” value ([2]; even at 10 μg/ml, compared with #114, #130, #140 and 50 μg/ml triclabendazole/sulfoxide) was “particularly efficacious”, the “No. of rats cured/No. of rats investigated” value (adult F. hepatica [3]) was 1/2 and the “Number of living worms Ø = average” value (adult F. hepatica [3]) was 1.5. The “Worm burden reduction %” value (adult F. hepatica [3]) was 76.2%.

With `FC(F)(F)C(F)(F)C(F)(F)c1nc2cc(Cl)c(-c3ccc(Cl)cc3)cc2[nH]1` [Compound 274, 5-chloro-6-(4-chlorophenyl)-2-(heptafluoropropyl)-1H-1,3-benzodiazole] the minimal effective concentration (adult F. hepatica [1]; 72 h) was 5 µg/mL, the “No. of rats cured/No. of rats investigated” value (adult F. hepatica [3]) was 1/3 and the “Number of living worms Ø = average” value (adult F. hepatica [3]) was 2.3.

With `Fc1ccc(-c2cc3[nH]c(C(F)(F)C(F)(F)C(F)(F)F)nc3cc2Cl)cc1` [Compound 282, 5-chloro-6-(4-fluorophenyl)-2-(heptafluoropropyl)-1H-1,3-benzodiazole] the minimal effective concentration (adult F. hepatica [1]; 72 h) was under 2.5 µg/mL, the “No. of rats cured/No. of rats investigated” value (adult F. hepatica [3]) was 2/3 and the “Number of living worms Ø = average” value (adult F. hepatica [3]) was 2.

For `FC(F)(F)c1ccc(-c2cc3[nH]c(C(F)(F)C(F)(F)C(F)(F)F)nc3cc2Cl)cc1` [Compound 290, 5-chloro-2-(heptafluoropropyl)-6-[4-(trifluoromethyl)phenyl]-1H-1,3-benzodiazole], the minimal effective concentration (adult F. hepatica [1]; [4]) was 50 µg/mL, the “No. of rats cured/No. of rats investigated” value (adult F. hepatica [3]) was 1/3 and the “Number of living worms Ø = average” value (adult F. hepatica [3]) was 3.3. The “Worm burden reduction %” value (adult F. hepatica [3]) was 47.6%.

`FC(F)(F)c1ccc(-c2cc3[nH]c(C(F)(F)C(F)(F)C(F)(F)F)nc3cc2Cl)c(C(F)(F)F)c1` [Compound 303, 6-[2,4-bis(trifluoromethyl)phenyl]-5-chloro-2-(heptafluoropropyl)-1H-1,3-benzodiazole] was tested, and the minimal effective concentration (adult F. hepatica [1]; [4]) was 20 µg/mL, the “No. of rats cured/No. of rats investigated” value (adult F. hepatica [3]) was 1/3 and the “Number of living worms Ø = average” value (adult F. hepatica [3]) was 1.3. The “Worm burden reduction %” value (adult F. hepatica [3]) was 79.4%.

`C[S+]([O-])c1nc2cc(Oc3cccc(Cl)c3Cl)c(Cl)cc2[nH]1` (centres unmarked) [TBZ-SOX, triclabendazole/sulfoxide, reference compound] gave a Fluke activity score ([2]; 50 μg/ml, 0 h) of 3, a Fluke activity score ([2]; 50 μg/ml, 24 h) of 3 and a Fluke activity score ([2]; 50 μg/ml, 48 h) of 2.5. The Fluke activity score ([2]; 50 μg/ml, 72 h) was 2.
